Assay results as given in patent US6664284B2, “Stabilized carvedilol injection solution” (Roche Diagnostics GmbH, priority 1998, dated 2003).
Converted amounts (≈) assume the structure as drawn.

Assays:
[1] = Solubility of loop diuretics in the acidic to maximum neutral aqueous formulations; details: acidic to neutral aqueous carvedilol injection solutions, aqueous with cosolvent or surfactant or cyclodextrin
physchem [2] = details: pH 6.1, water
lipid peroxidation = details: reported by Yue et al.; cited from earlier work
physchem [3] = details: aqueous with cosolvent or surfactant or cyclodextrin

`NS(=O)(=O)c1cc(-c2nnn[nH]2)c(NCc2cccs2)cc1Cl` [azosemide] showed a solubility [1] of 1000 to 3000 µg/mL (≈ 2700 to 8090 µM).

For `COc1ccccc1OCCNCC(O)COc1cccc2[nH]c3ccccc3c12` (stereo not drawn) [carvedilol, 1-(9H-carbazol-4-yloxy)-3-[[2-(2-methoxyphenoxy)ethyl]amino]-2-propanol], the solubility (physchem [2]) was about 2 µg/mL (≈ 4.92 µM), the “solubility of carvedilol in water” value (pH 6.1) was “about 0.2 mg/100 ml” and the “pH value resulting from saturated solution in water” value (water) was 6.1. For the same molecule, the “antioxidative activity, lipid peroxidation” value (lipid peroxidation) was “inhibit lipid peroxidation”.

`Cc1cccc(Nc2ccncc2S(=O)(=O)NC(=O)NC(C)C)c1` [Torasemide] showed a solubility (physchem [3]) of 1000 to 2000 µg/mL (≈ 2870 to 5740 µM).
